US20210292347A1, “DIHETEROCYCLIC TRIAZINONE NUCLEOSIDE ANALOGS AND THEIR USE FOR MEDICATION” (priority 2020, published 2021)
In brackets after ≈: the same amount, converted by molar mass. Entries after “also recorded” stand apart in the source; their conditions may differ. Like-named read-outs stand apart in the source and are kept apart here.

Experiments:
mice sarcoma S180 = assay: Growth inhibition of S180 sarcoma in mice; type: in vivo, Kunming healthy mice; settings: for in-vivo anti-tumor efficacy, statistical significance (in words): S180 sarcoma in mice, doses and routes of Table 3
[1] = test system: human lung cancer cell line NCI-H460; assay: cells; type: cell-based; settings: for IC50: Homo sapiens; for inhibitory effect on NCI-H460 cells (in words): lung cancer
Method: (§1) Cell lines: Human pancreatic cancer cell line Panc-1, human colorectal cancer cell line HT29, human lung cancer cell line NCI-H460 and human breast cancer cell line MCF7; the medium: s DMEM (Gibco BRL), containing 10% fetal calf serum (Gibco BRL) and 2 mM L-glutamine (Gibco BRL).
(§2) Test samples: example compounds 7, 15, 82, 89, 116 and 135. The samples were dissolved in dimethyl sulfoxide (DMSO, Sigma, United States) and medium was added to the final concentration of 0.5%. Cyclophosphamide ware as positive control (Aldrich, United States, purity>96%).
(§3) General Method: cells were digested with trypsin and dispersed into single cells in the medium containing penicillin (25 U/ml) and streptomycin (25 μg/mL). The cells were seeded in 96-well culture plates (Corning Incorporated), at 37° C., with 5% CO2 present for 24 hours. The culture medium was removed, […] test compounds were added, cultured for 48 hours. Culture medium was removed and […] (MTT, USA Sigma products) was added. The result was assayed by SK601-based microplate reader (Japan Seikagaku company's products), 570 nm/630 nm optical density (OD). Cell viability determined by the formula: (Experimental group OD/control OD)×100%; CTX and the positive control subjects treated in the same material simultaneously.

[2] = test system: Human pancreatic cancer cell line Panc-1; assay: cells; type: cell-based; settings: for IC50: Homo sapiens, read-out: IC50 and 95% confidence limit, anti-proliferative effect on Panc-1; for anti-proliferative effect on Panc-1 (in words): pancreatic cancer
Method: as §1, §2, §3

[3] = test system: human breast cancer cell line MCF7; assay: cells; type: cell-based
Method: as §1, §2, §3

[4] = test system: human colorectal cancer cell line HT29; assay: cells; type: cell-based; settings: for IC50: Homo sapiens; for anti-proliferative effect on HT29 (in words): colorectal cancer
Method: as §1, §2, §3

[5] = NCI-H460, MTT, 48 hours, unit inferred, read-out: IC50 and 95% confidence limits, NCI-H460 cells
[6] = NCI-H460, MTT, cultured for 48 hours, value (95% confidence limit), Table 2, read-out: IC50 Lung cancer NCI-H460
[7] = MCF7, MTT, 48 hours, unit inferred, read-out: IC50 with 95% confidence limits, MCF7 cells
[8] = MCF7, MTT, cultured for 48 hours, value (95% confidence limit), Table 2, read-out: IC50 Breast cancer MCF7
[9] = HT-29, MTT, 48 hours, read-out: IC50 and 95% confidence limit, anti-proliferative effect on HT29
[10] = HT-29, MTT, cultured for 48 hours, value (95% confidence limit), Table 2, read-out: IC50 Colorectal cancer HT-29
[11] = Mus musculus, S-180, mice, iv, read-out: Inhibition rate (%) S180 sarcoma

| Structure (SMILES) | IC50 [1, 5] [µM] | IC50 [1, 6] [µM] | IC50 ([2]; PANC-1, MTT, 48 hours) [µg/mL] | IC50 [3, 7] [µM] | IC50 [3, 8] [µM] | IC50 [4, 9] [µg/mL] | IC50 [4, 10] [µM] | anti-proliferative effect on HT29 (in words) [4] | inhibition in vivo at 50 mg/kg (mice sarcoma S180; [11]) [%] | in-vivo anti-tumor efficacy, statistical significance (in words) (mice sarcoma S180) | inhibitory effect on NCI-H460 cells (in words) [1] | anti-proliferative effect on Panc-1 (in words) [2] | also measured |
| --- | --- | --- | --- | --- | --- | --- | --- | --- | --- | --- | --- | --- | --- |
| CCCc1nn(C(C(=O)O)P(=O)(OCC)OCC)c2c(=O)n(C3CCC(CO)O3)nnc12 (centres unmarked) [Example 82, 2-(diethoxyphosphoryl)-2-(3-(5-(hydroxymethyl)tetrahydrofuran-2-yl)-4-oxo-7-propyl-3H-pyrazolo[4,3-d][1,2,3]triazin-5(4H)-yl)acetic acid] | 60.5 | 60.5 | 53 (≈ 112 µM) | 34.3 | 34.3 | 10.2 | 13.1 | relatively weak | – | – | – | – | inhibition in vivo at 15 mg/kg (mice sarcoma S180; Mus musculus, S-180, mice, iv, 15 mg/kg, read-out: Inhibition rate (%) S180 sarcoma): < 20% |
| CCOC(=O)c1nn(O)c2c(=O)n(C3OC(COC(C(=O)O)P(NC(C)C)OCC#N)C(O)C3O)nnc12 (centres unmarked) [Example 116, 2-((cyanomethoxy)(isopropylamino)phosphino)-2-((5-(7-(ethoxycarbonyl)-5-hydroxy-4-oxo-4,5-dihydro-3H-pyrazolo[4,3-d][1,2,3]triazin-3-yl)-3,4-dihydroxytetrahydrofuran-2-yl)methoxy)acetic acid] | – | – | – | – | – | – | – | the strongest; also recorded: higher inhibition activity | < 40 | statistically significant | more sensitive to NCI-H460 cells | a strong anti-proliferative effect, better than CTX; also recorded: higher inhibition activity | IC50 ([1]; NCI-H460, 48 h, read-out: IC50 Lung cancer NCI-H460): 4.62 µM; IC50 ([1]; NCI-H460, 48 h, read-out: IC50 and 95% confidence limits, NCI-H460 cells): 4.62 µM; IC50 ([2]; PANC-1, 48 h): 2.19 µg/mL (≈ 3.91 µM); IC50 ([3]; MCF7, 48 h, read-out: IC50 Breast cancer MCF7): 12.9 µM; IC50 ([3]; MCF7, 48 h, read-out: IC50 with 95% confidence limits, MCF7 cells): 12.9 µM; IC50 ([4]; HT-29, 48 h, read-out: IC50 Colorectal cancer HT-29): 2.68 µM; IC50 ([4]; HT-29, 48 h, read-out: IC50 and 95% confidence limit, anti-proliferative effect on HT29): 2.68 µg/mL |
| Nc1nn(O)c2c(=O)n(C3CSC(CO)O3)nnc12 (centres unmarked) [Example 89, 7-amino-5-hydroxy-3-(2-(hydroxymethyl)-1,3-oxathiolan-5-yl)-3H-pyrazolo[4,3-d][1,2,3]triazin-4(5H)-one] | 8.52 | 8.52 | 10 (≈ 35 µM) | 67.5 | 67.5 | 13.1 | 10.2 | relatively weak | – | statistically significant | – | – | inhibition in vivo at 100 mg/kg (mice sarcoma S180; Mus musculus, S-180, mice, ip, 100 mg/kg, read-out: Inhibition rate (%) S180 sarcoma): < 40% |
| CCCc1nn(C)c2c(=O)n(C3OC(COP(=O)(O)OP(=O)(O)OP(=O)(O)O)C(O)C3O)nnc12 (centres unmarked) [Example 135, (3,4-dihydroxy-5-(5-methyl-4-oxo-7-propyl-4,5-dihydro-3H-pyrazolo[4,3-d][1,2,3]triazin-3-yl)tetrahydrofuran-2-yl)methyl tetrahydrogen triphosphate] | 14 | 14 | 53.5 | 5.7 | 5.7 | 18 | 18 | relatively weak | – | statistically significant | – | – | inhibition in vivo at 25 mg/kg (mice sarcoma S180; Mus musculus, S-180, mice, iv, 25 mg/kg, read-out: Inhibition rate (%) S180 sarcoma): < 40% |
| Nc1nn(O)c2c(=O)n(C3OC(CO)C(O)C3O)nnc12 (centres unmarked) [Example 15, 7-amino-3-(3,4-dihydroxy-5-(hydroxymethyl)tetrahydrofuran-2-yl)-5-hydroxy-3H-pyrazolo[4,3-d][1,2,3]triazin-4(5H)-one] | 22 | 22 | 2.68 (≈ 8.93 µM) | 2.73 | 2.73 | 3.92 | 3.92 | close values to CTX; also recorded: higher inhibition activity | < 40 | statistically significant | more sensitive to NCI-H460 cells | higher inhibition activity | – |
